Laboratory results reported in patent publication US9403855B2 (priority 2010, dated 2016).
Values joined by “and” are separate entries in the source; they are usually repeats but may differ in a detail not shown here. Identical values can stand only once.

What was measured:
[1] = target: neuraminidase of A/WSN/1933 (H1N1) (Influenza A virus, UniProt P03470); experiment: biochemical; set-up: species or system Influenza virus A/WSN/1933 (H1N1)
[2] = target: neuraminidase of A/California/7/2009 (pandemic H1N1) (Influenza A virus, UniProt C3W6G3); experiment: biochemical; set-up: species or system Influenza virus A/California/7/2009 (pandemic H1N1)
[3] = target: neuraminidase of A/Udorn/307/1972 (H3N2) (Influenza A virus, UniProt P0DOF6); experiment: biochemical; set-up: species or system Influenza virus A/Udorn/307/1972 (H3N2)
[4] = system: A/WSN/1933 (H1N1); experiment: microbe, parasite or virus in culture; type: cell-based, Influenza virus A/WSN/1933 (H1N1); conditions: Influenza A virus, read-out: EC50 (anti-influenza activity)
[5] = system: A/California/7/2009 (pandemic H1N1); experiment: microbe, parasite or virus in culture; type: cell-based, Influenza virus A/California/7/2009 (pandemic H1N1); conditions: Influenza A virus, H1N1, read-out: EC50 (anti-influenza activity)
[6] = system: A/Vietnam/1194/2004 RG14 (H5N1); experiment: microbe, parasite or virus in culture; type: cell-based, Influenza virus A/Vietnam/1194/2004 RG14 (H5N1); conditions: Influenza A virus, H5N1, read-out: EC50 (anti-influenza activity)
[7] = system: A/Udorn/307/1972 (H3N2); experiment: microbe, parasite or virus in culture; type: cell-based, Influenza virus A/Udorn/307/1972 (H3N2); conditions: Influenza A virus, H3N2, read-out: EC50 (anti-influenza activity)
[8] = in vitro; conditions: human
[9] = system: wild type (274H) neuraminidase of A/Hanoi/30408/2005 (H5N1) on 293T cells; type: binding
[10] = system: mixed 293T cells expressing 274H and 274Y neuraminidase of A/Hanoi/30408/2005 (H5N1); type: binding
[11] = system: 274H influenza virus (WSN), immobilized; type: binding
[12] = in vivo; cited from earlier work

neuraminidase of A/Udorn/307/1972 (H3N2), sequence (P0DOF6 whole entry, looked up): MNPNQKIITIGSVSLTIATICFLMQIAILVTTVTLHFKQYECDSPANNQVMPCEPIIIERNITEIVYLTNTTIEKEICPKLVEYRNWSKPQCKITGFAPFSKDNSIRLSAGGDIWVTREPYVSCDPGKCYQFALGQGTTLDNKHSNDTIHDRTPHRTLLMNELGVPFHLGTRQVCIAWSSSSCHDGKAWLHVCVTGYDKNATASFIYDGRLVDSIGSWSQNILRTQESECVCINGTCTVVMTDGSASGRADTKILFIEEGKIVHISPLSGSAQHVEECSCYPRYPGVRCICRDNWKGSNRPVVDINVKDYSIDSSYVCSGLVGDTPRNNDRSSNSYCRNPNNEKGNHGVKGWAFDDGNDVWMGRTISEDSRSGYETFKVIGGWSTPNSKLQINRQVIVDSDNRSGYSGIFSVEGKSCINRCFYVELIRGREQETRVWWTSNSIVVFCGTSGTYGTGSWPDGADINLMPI
neuraminidase of A/WSN/1933 (H1N1), sequence (P03470 whole entry, looked up): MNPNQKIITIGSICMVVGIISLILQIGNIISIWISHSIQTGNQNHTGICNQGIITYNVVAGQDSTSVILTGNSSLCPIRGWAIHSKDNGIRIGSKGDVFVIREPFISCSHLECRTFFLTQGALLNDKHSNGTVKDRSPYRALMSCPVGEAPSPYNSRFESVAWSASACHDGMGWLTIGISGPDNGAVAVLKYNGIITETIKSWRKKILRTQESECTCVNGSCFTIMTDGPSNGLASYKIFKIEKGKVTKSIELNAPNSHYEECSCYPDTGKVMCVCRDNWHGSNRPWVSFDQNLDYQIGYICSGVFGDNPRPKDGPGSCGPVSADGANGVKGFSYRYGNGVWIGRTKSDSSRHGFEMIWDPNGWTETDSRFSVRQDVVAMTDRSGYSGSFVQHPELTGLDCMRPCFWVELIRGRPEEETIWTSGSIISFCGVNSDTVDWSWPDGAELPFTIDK

SMILES | IC50 [1] [µM] | IC50 [2] [µM] | IC50 [3] [µM] | EC50 [4] [µM] | EC50 [5] [µM] | EC50 [6] [µM] | EC50 [7] [µM] | CC50 [8] [µM] | percentage of ZB labeled cells [9] [%] | percentage of ZB labeled cells [10] | residual ZB binding in OC competition [11] | melting point [°C] | Bioavailability [12] [%]
CC(=O)N[C@H]1[C@H]([C@H](O)[C@H](O)CO)OC(P(=O)(O)O)=C[C@@H]1NC(=N)N [1b, (5-Acetamido-4-guanidino-6-(1,2,3-hydroxy)propyl-4,5,6-trihydropyran-2-yl) phosphonic acid] | 0.0012 | 0.0008 | 0.0052 | 0.0024 | 0.0265 | 1.7 ± 0.5 | 0.032 ± 0.023 | > 50 | – | – | – | – | –
CC(=O)N[C@H]1[C@H]([C@H](O)[C@H](O)CO)OC(P(=O)(O)O)=C[C@@H]1N [1a, (5-Acetamido-4-amino-6-(1,2,3-hydroxy)propyl-4,5,6-trihydropyran-2-yl) phosphonic acid] | 0.00065 | 0.0009 | 0.0064 | 0.0013 | 0.0203 | 0.978 | 0.055 | > 30 | – | – | – | – | –
CC(=O)N[C@H]1[C@H]([C@H](OC(=O)NCc2cn(CCCCCNC(=O)CCCCC3SC[C@@H]4NC(=O)N[C@H]34)nn2)[C@H](O)CO)OC(C(=O)O)=C[C@@H]1NC(=N)N (stereo partly shown) [ZB] | – | – | – | – | – | – | – | – | 83.95 | 84.4% and 84.62% and 86.07% and 83.58% | about 3% | 170 to 172 | –
CC(=O)N[C@H]1[C@H]([C@H](O)[C@H](O)CO)OC(C(=O)O)=C[C@@H]1N=C(N)N [Zanamivir, reference compound] | – | – | – | 0.0235 ± 0.0085 | 0.267 | 16.4 ± 2.98 | 0.041 ± 0.006 | > 100 | – | – | – | – | 2
CCC(CC)O[C@@H]1C=C(C(=O)O)C[C@H](N)[C@H]1NC(C)=O [Oseltamivir acid, oseltamivir carboxylic acid, reference compound] | – | – | – | 0.0122 ± 0.0023 | 0.076 | 1.25 ± 0.44 | 0.003 ± 0.0018 | > 100 | – | – | – | – | –
